The supplement of paper PMC10733146

Columns and labels:
Test in all cases: viability relative to DMSO control (fraction); higher = less drug effect (more viable cells)
Settings in all cases: 48 h
Venetoclax = compound: CC1(C)CCC(CN2CCN(c3ccc(C(=O)NS(=O)(=O)c4ccc(NCC5CCOCC5)c([N+](=O)[O-])c4)c(Oc4cnc5[nH]ccc5c4)c3)CC2)=C(c2ccc(Cl)cc2)C1 [Venetoclax]
Outline: (§1)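 Viability was measured as CellTiter-Glo luminescence relative to the median of 16 inner DMSO wells. Primary mononuclear tumour cells, fresh or cryopreserved, were Ficoll-isolated from blood or bone marrow or taken from processed lymph node. They were seeded at 4 × 10^4 cells per well into 384-well plates holding pre-plated compounds at five concentrations, one well each, and kept in RPMI-1640 with penicillin/streptomycin, L-glutamine and human serum at 37 °C and 5% CO2 for 48 h.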

CPI-169 = compound: CCS(=O)(=O)N1CCC([C@@H](C)n2c(C)c(C(=O)NCc3c(OC)cc(C)[nH]c3=O)c3ccccc32)CC1 [CPI-169]
Outline: as §1

I-BET-762 = compound: CCNC(=O)C[C@@H]1N=C(c2ccc(Cl)cc2)c2cc(OC)ccc2-n2c(C)nnc21 [I-BET-762]
Outline: as §1

Entospletinib = compound: c1cn2cc(-c3ccc4cn[nH]c4c3)nc(Nc3ccc(N4CCOCC4)cc3)c2n1 [Entospletinib]
Outline: as §1

[1] = compound: O=C(Nc1ccc2[nH]nc(-c3ccncc3)c2c1)[C@@H]1CCN(CC(=O)N2CCN(c3ccc(-c4ncccn4)cc3)CC2)C1
Outline: as §1

Bendamustine = compound: Cn1c(CCCC(=O)O)nc2cc(N(CCCl)CCCl)ccc21 [Bendamustine]
Outline: as §1

[2] = compound: O=C(NO)c1cccc(C(=O)NCCc2ccccc2)c1
Outline: as §1

Everolimus = compound: CO[C@H]1C[C@@H]2CC[C@@H](C)[C@@](O)(O2)C(=O)C(=O)N2CCCC[C@H]2C(=O)O[C@H]([C@H](C)C[C@@H]2CC[C@@H](OCCO)[C@H](OC)C2)CC(=O)[C@H](C)/C=C(\C)[C@@H](O)[C@@H](OC)C(=O)[C@H](C)C[C@H](C)/C=C/C=C/C=C/1C [Everolimus]
Outline: as §1

Thalidomide = compound: O=C1CCC(N2C(=O)c3ccccc3C2=O)C(=O)N1 [Thalidomide]
Outline: as §1

[3] = compound: C[C@H]1C[C@@H](n2c(Nc3ccc(OC(F)(F)F)cc3)nc3cc(CCC(=O)O)ccc32)CC(C)(C)C1
Outline: as §1

Idasanutlin (RS7388) = compound: COc1cc(C(=O)O)ccc1NC(=O)[C@@H]1N[C@@H](CC(C)(C)C)[C@](C#N)(c2ccc(Cl)cc2F)[C@H]1c1cccc(Cl)c1F [Idasanutlin (RS7388)]
Outline: as §1

Vindesine = compound: CC[C@]1(O)C[C@@H]2CN(CCc3c([nH]c4ccccc34)[C@@](C(=O)OC)(c3cc4c(cc3OC)N(C)[C@H]3[C@@](O)(C(N)=O)[C@H](O)[C@]5(CC)C=CCN6CC[C@]43[C@@H]65)C2)C1 [Vindesine]
Outline: as §1

Roscovitine = compound: CC[C@H](CO)Nc1nc(NCc2ccccc2)c2ncn(C(C)C)c2n1 [Roscovitine]
Outline: as §1

primary DLBCL patient cells (S049)
viability (Venetoclax; 0.00064 µM): 0.898
viability (Venetoclax; 0.0032 µM): 0.593
viability (Venetoclax; 0.016 µM): 0.149
viability (Venetoclax; 0.08 µM): 0.0521
viability (Venetoclax; 0.4 µM): 0.0447
viability (CPI-169; 0.024 µM): 1.03
viability (CPI-169; 0.12 µM): 1.02
viability (CPI-169; 0.6 µM): 1.05
viability (CPI-169; 3 µM): 0.991
viability (CPI-169; 15 µM): 0.97
viability (I-BET-762; 0.008 µM): 0.982
viability (I-BET-762; 0.04 µM): 1.02
viability (I-BET-762; 0.2 µM): 0.987
viability (I-BET-762; 1 µM): 0.552
viability (I-BET-762; 5 µM): 0.246
viability (Entospletinib; 0.024 µM): 0.951
viability (Entospletinib; 0.12 µM): 0.834
viability (Entospletinib; 0.6 µM): 0.804
viability (Entospletinib; 3 µM): 0.886
viability (Entospletinib; 15 µM): 0.892
viability ([1]; 0.008 µM): 0.611
viability ([1]; 0.04 µM): 0.53
viability ([1]; 0.2 µM): 0.396
viability ([1]; 1 µM): 0.304
viability ([1]; 5 µM): 0.245
viability (Bendamustine; 0.032 µM): 0.986
viability (Bendamustine; 0.16 µM): 0.994
viability (Bendamustine; 0.8 µM): 1.05
viability (Bendamustine; 4 µM): 1.11
viability (Bendamustine; 20 µM): 0.937
viability ([2]; 0.024 µM): 0.886
viability ([2]; 0.12 µM): 0.986
viability ([2]; 0.6 µM): 0.966
viability ([2]; 3 µM): 1.02
viability ([2]; 15 µM): 1.05
viability (Everolimus; 0.0032 µM): 1.1
viability (Everolimus; 0.016 µM): 1.04
viability (Everolimus; 0.08 µM): 1.09
viability (Everolimus; 0.4 µM): 1.05
viability (Everolimus; 2 µM): 1.02
viability (Thalidomide; 0.032 µM): 0.902
viability (Thalidomide; 0.16 µM): 0.864
viability (Thalidomide; 0.8 µM): 0.918
viability (Thalidomide; 4 µM): 0.968
viability (Thalidomide; 20 µM): 1.03

primary AML patient cells (S055)
viability (CPI-169; 0.024 µM): 0.982
viability (CPI-169; 0.12 µM): 0.989
viability (CPI-169; 0.6 µM): 1.07
viability (CPI-169; 3 µM): 1.03
viability (CPI-169; 15 µM): 1
viability ([1]; 0.008 µM): 0.929
viability ([1]; 0.04 µM): 0.819
viability ([1]; 0.2 µM): 0.652
viability ([1]; 1 µM): 0.52
viability ([1]; 5 µM): 0.498
viability ([3]; 0.024 µM): 0.953
viability ([3]; 0.12 µM): 1.03
viability ([3]; 0.6 µM): 0.997
viability ([3]; 3 µM): 0.923
viability ([3]; 15 µM): 0.994
viability (Idasanutlin (RS7388); 0.032 µM): 0.872
viability (Idasanutlin (RS7388); 0.16 µM): 0.934
viability (Idasanutlin (RS7388); 0.8 µM): 0.694
viability (Idasanutlin (RS7388); 4 µM): 0.389
viability (Idasanutlin (RS7388); 20 µM): 0.229
viability (Bendamustine; 0.032 µM): 0.978
viability (Bendamustine; 0.16 µM): 1.02
viability (Bendamustine; 0.8 µM): 0.995
viability (Bendamustine; 4 µM): 0.995
viability (Bendamustine; 20 µM): 0.952
viability ([2]; 0.024 µM): 0.923
viability ([2]; 0.12 µM): 1.01
viability ([2]; 0.6 µM): 0.907
viability ([2]; 3 µM): 0.975
viability ([2]; 15 µM): 0.997
viability (Vindesine; 0.016 µM): 1.1
viability (Vindesine; 0.08 µM): 0.777
viability (Vindesine; 0.4 µM): 0.448
viability (Vindesine; 2 µM): 0.363
viability (Vindesine; 10 µM): 0.359
viability (Everolimus; 0.0032 µM): 0.904
viability (Everolimus; 0.016 µM): 0.96
viability (Everolimus; 0.08 µM): 0.89
viability (Everolimus; 0.4 µM): 0.951
viability (Everolimus; 2 µM): 0.914
viability (Thalidomide; 0.032 µM): 0.916
viability (Thalidomide; 0.16 µM): 0.94
viability (Thalidomide; 0.8 µM): 0.894
viability (Thalidomide; 4 µM): 0.931
viability (Thalidomide; 20 µM): 0.876

primary AML patient cells (S025)
viability (Venetoclax; 0.00064 µM): 0.975
viability (Venetoclax; 0.0032 µM): 0.762
viability (Venetoclax; 0.016 µM): 0.458
viability (Venetoclax; 0.08 µM): 0.277
viability (Venetoclax; 0.4 µM): 0.201
viability (CPI-169; 0.024 µM): 0.866
viability (CPI-169; 0.12 µM): 0.926
viability (CPI-169; 0.6 µM): 0.902
viability (CPI-169; 3 µM): 1.12
viability (CPI-169; 15 µM): 1.12
viability (I-BET-762; 0.008 µM): 0.928
viability (I-BET-762; 0.04 µM): 1.03
viability (I-BET-762; 0.2 µM): 1.03
viability (I-BET-762; 1 µM): 0.817
viability (I-BET-762; 5 µM): 0.705
viability (Entospletinib; 0.024 µM): 0.997
viability (Entospletinib; 0.12 µM): 0.911
viability (Entospletinib; 0.6 µM): 0.887
viability (Entospletinib; 3 µM): 0.937
viability (Entospletinib; 15 µM): 0.993
viability ([1]; 0.008 µM): 0.824
viability ([1]; 0.04 µM): 0.707
viability ([1]; 0.2 µM): 0.604
viability ([1]; 1 µM): 0.521
viability ([1]; 5 µM): 0.468
viability ([3]; 0.024 µM): 0.95
viability ([3]; 0.12 µM): 0.877
viability ([3]; 0.6 µM): 0.941
viability ([3]; 3 µM): 0.768
viability ([3]; 15 µM): 0.817
viability (Roscovitine; 0.032 µM): 0.927
viability (Roscovitine; 0.16 µM): 0.971
viability (Roscovitine; 0.8 µM): 1.04
viability (Roscovitine; 4 µM): 0.96
viability (Roscovitine; 20 µM): 0.726
viability (Idasanutlin (RS7388); 0.032 µM): 0.755
viability (Idasanutlin (RS7388); 0.16 µM): 0.558
viability (Idasanutlin (RS7388); 0.8 µM): 0.264
viability (Idasanutlin (RS7388); 4 µM): 0.137
viability (Idasanutlin (RS7388); 20 µM): 0.0965
viability (Bendamustine; 0.032 µM): 1.08
viability (Bendamustine; 0.16 µM): 1.11
viability (Bendamustine; 0.8 µM): 1.01
viability (Bendamustine; 4 µM): 0.918
viability (Bendamustine; 20 µM): 0.783
viability ([2]; 0.024 µM): 0.917
viability ([2]; 0.12 µM): 1.04
viability ([2]; 0.6 µM): 0.945
viability ([2]; 3 µM): 0.979
viability ([2]; 15 µM): 1.05
viability (Vindesine; 0.016 µM): 0.764
viability (Vindesine; 0.08 µM): 0.85
viability (Vindesine; 0.4 µM): 1.02
viability (Vindesine; 2 µM): 0.913
viability (Vindesine; 10 µM): 0.971
viability (Everolimus; 0.0032 µM): 0.974
viability (Everolimus; 0.016 µM): 1.05
viability (Everolimus; 0.08 µM): 1.01
viability (Everolimus; 0.4 µM): 0.983
viability (Everolimus; 2 µM): 0.94
